Source: PMC11148078, “Potent activity of polymyxin B is associated with long-lived super-stoichiometric accumulation mediated by weak-affinity binding to lipid A” (Nature Communications, 2024)
Bridge positions count the residues as written; N and C are the ends. Square brackets hold non-standard residues; d marks the D form. Peptide text beside a SMILES is read from it. * marks the point of attachment. X1 = CC[C@H](C)CCCCC(=O)*; Dab = NCC[C@H](N)C(=O)O

Assays:
[1] = tested on: mammalian extracellular vesicles (Expi293 cells); assay: SPR binding to mammalian vesicles on LP chip; settings: 312.5 nM–40 µM, 25 °C
Description: tween-80 (SI Fig. S4F). Note that higher concentrations were used to resolve the interaction above non-specific chip binding and the loss of polymyxin B to binding of plastics as discussed […]
OMVs isolated from polymyxin-resistant bacteria (resistant-OMVs) were composed of modified lipid A (SI Table S1 and SI Fig. S6) and were immobilized via amine-coupled polymyxin B to the surface of a C1 chip (SI Fig. S4G). Given the results of our studies here, the binding of resistant-OMVs to the amine-coupled polymyxin B surface (stably, at least within the time frames used here) is not surprising. OMVs have several advantages over whole cells and purified LPS. They can be produced in large batches and frozen for multiple experiments. OMVs can be isolated from potentially any genetic background (such as the two polymyxin-resistant strains used here), from potentially any gram-negative bacterial strains, and allow interrogation of types of LPS which are not commercially available (ex. modified lipid A species). […]
Analysis and compartment temperature were set to 25°C. Mammalian vesicles from Expi293 cells were isolated as described19 by harvesting supernatants and concentrating vesicles via ultra-centrifugation (120,000 xg, 4°C, 1h), washing, suspending pellet in PBS, quantifying by Bradford protein assay, and diluting to […] in PBS. […]

wt-OMVs = assay: Three-state model fit to SPR titration, wt-OMVs; assay type: binding, E. coli
Description: To estimate binding constants, the three-state model was fit to binding curve titrations (Fig. 5A, B, and Table 2). Briefly, the SPR response curves of polymyxin B binding wt-OMVs (Fig. 5A) or resistant OMVs (Fig. 5B) were globally fit to Eqn. (1) by non-linear regression coupled to numerical integration of the associated ordinary differential equations (see Supplementary Information Section 2A), which define the time-dependent concentrations of each species.1 Response(t)=([PMBL]t+[nPMBL]t+2*[tPMB]t+m.[cPMB]t).MW.G.
Section 2A - Formulation of three-state model for fitting SPR data
The three-state model (Fig. 4) was formulated as a set of coupled ordinary differential equations (ODEs), with eight binding rate constants (k1-8) governing the rates of interchange of each species.
Forward rate constants k7 and k9 were eliminated from the equation set as formation of transient species tPMB and LL are irreversible.
Time at Injection 1 start = 0 s
Sample contact time = 30 s
Dissociation time interval = 35 s
Mass transport rate = kt = 46.5 1/s
Initial Species Concentrations
Coupled ODEs of Three-State Model d[L]/dt = -(k1.[PMB].[L] - k2.[PMBL])+2*k10.[LL] (S8) d[PMB]/dt = -(k1.[PMB].[L] - k2.[PMBL]) + kt’.([PMBi](t) –[PMB]) (S9) d[PMBL]/dt = (k1.[PMB]*[L] - k2.[PMBL])-(k3.[PMBL].[n] - k4.[nPMBL] ) (S10) d[n]/dt = -(k3.[PMBL].[n] - k4.[nPMBL] ) (S11) d[nPMBL]/dt = (k3.[PMBL].[n] - k4.[nPMBL])-2.(k5.[nPMBL].[nPMBL] - k6.[tPMB].[LL] ) (S12) d[tPMB]/dt = (k5.[nPMBL].[nPMBL] - k6.[tPMB].[LL] ) – k8.[tPMB] (S13) d[cPMB]/dt = 2*k8.[tPMB] (S14) d[LL]/dt = (k5.[nPMBL].[nPMBL] – k6.[tPMB].[LL]) – k10.[LL] (S15)
The initial concentrations of each species were as follows
[PMB]t=0 = [PMBL]t=0 = [nPMBL]t=0 = [tPMB]t=0 = [LL]t=0 = [cPMB]t=0 = 0 [L]t=0 = [n]t=0 = 1.56 x 10-4 (units, M) kt’ (units, m/s) was already defined in SI Section 1A. [PMBi](t) is the injected concentration profile and [PMB]t is the concentration profile at the sensing surface. [PMBi](t) follows a serial-doubling concentration of injected analyte, with a concentration profile defined by a serial step function, where each injection step represents a discrete concentration followed by a dissociation step without injected analyte and this is repeated for each concentration in the SCK dosing series.
Kintek Explorer V9.5 was used to build and fit the three-state model. This program employs its own numerical integrator9, which reports the change in concentration of each species over time.
The SPR responses for concentrations of each accumulating PMB-species estimated from Eqn (8 - 15) are summed over time in Eqn (1), repeated here.
Response(t) = ([PMBL]t+[nPMBL]t+2*[tPMB]t+m.[cPMB]t).MW.G. Eqn (1)
The concentration of [tPMB]t is multiplied by two to account for its additional mass, being composed of two PMB molecules. Insertion of PMB into the acyl-LPS matrix to form cPMB is associated with changes in the phase state of LPS10 and is also likely associated with redistribution of mass towards the sensing surface11. These changes will manifest as an increase in sensitivity of the SPR binding response when clusters are formed and are included in Eqn (1) […]
using a sensitivity coefficient (m). MW is the molecular weight of the injected analyte, in this case PMB (1203.48 Da). The constant, G, is a unit conversion factor that converts protein concentration (g/L) to response (RU) and is typically 100 (units, RU.L/g). […]

With `CC[C@H](C)CCCCC(=O)N[C@@H](CCN)C(=O)N[C@H](C(=O)N[C@@H](CCN)C(=O)N[C@H]1CCNC(=O)[C@H]([C@@H](C)O)NC(=O)[C@H](CCN)NC(=O)[C@H](CCN)NC(=O)[C@H](CC(C)C)NC(=O)[C@@H](Cc2ccccc2)NC(=O)[C@H](CCN)NC1=O)[C@@H](C)O` [Polymyxin B] (X1-[Dab]T[Dab][Dab][Dab][dF]L[Dab][Dab]T; lactam 4-C (inferred); N-terminus assumed) the “SPR binding to mammalian cell derived vesicles” value [1] was “distinct from what we observe with OMVs and bacterial cells”, the k5 (wt-OMVs; dimerization of nPMBL, global fit, max 625 nM) was 20.75 M⁻¹ s⁻¹ and the k3 (wt-OMVs; membrane insertion / nPMBL formation, global fit, max 625 nM) was 2233 M⁻¹ s⁻¹. The k4 (wt-OMVs; nPMBL dissociation, global fit, max 625 nM) was 0.00488 s⁻¹, the “relative fraction of transition state” value (wt-OMVs; peer review file) was < 0.1% and the “residence time = 1/k4” value (wt-OMVs; stability of nucleates (nPMBL)) was 205 s.
